Source: US20220380828A1, “MICROBIAL DETECTION PLATFORM” (NUCLEASE PROBE TECHNOLOGIES, INC., priority 2019, published 2022)
d = 2'-deoxy (DNA); m = 2'-O-methyl

Tests used:
MRSA (ATCC BAA1707) = test: MRSA vs MSSA detection on probe-embedded agar with/without cefoxitin, 96-well plates; assay type: cell-based, Staphylococcus aureus; details: 1 μM probe in TSA-based media with/without cefoxitin, 37° C.
Method: Tryptic Soy Agar (BD Cat. #236950) was autoclaved according to the manufacturer's instructions and cooled down to 50-60° C. Then, pre-sterilized additives, including Tris*HCl (pH 9.0) (adjusted to 50 mM with the following stock solution: Rockland Cat. #MB028-1000) and CaCl2) (adjusted to 15 mM with the following stock solution: Sigma-Aldrich Cat. #21115-100ML) were added. 1 μM or 2 μM AttoPoly T 4mer and 4 μg/mL Cefoxitin (Alfa Aesar Cat. #AAJ6689103) were also included where indicated. 90 μL of the agar mixtures were pipetted into the wells of clear-bottom 96-well plates (Thermo Scientific, nunc Cat. #265301) and allowed to solidify. […]
(§1) S. aureus (ATCC 29213) cultures were grown in Tryptic Soy Broth (BD Cat. #211825) overnight at 37° C. with shaking at 300-400 rpm. […] Plates were incubated at 37° C. and imaged using an IO-Rodeo fluorescent imager (IO-Rodeo, Large, Blue LED) and an iPhone 8 camera, and fluorescence was also concurrently measured with a Synergy H1 microplate reader (BioTek).
(§2) Two fluorescence measurement formats were used to detect the growth of target bacterial species on agar growth media. […] The fluorescence of the 96-well plates was also measured with a Bio-Tek fluorescence plate-reader using fluorescence filters tailored for green fluorescence, providing quantitative data.

S. aureus (ATCC 29213) = test: S. aureus detection on probe-embedded agar Petri dishes (fluorescence imaging); assay type: cell-based, Staphylococcus aureus; details: agar plates streaked with <1000 cells, 37° C., fluorescence plate imaging (SASelect: chromogenic agar)
Method: (§3) Tryptic Soy Agar (BD Cat. #236950) was autoclaved according to the manufacturer's instructions and cooled down to 50-60° C. Then, pre-sterilized components, including Tris-HCl (pH 9.0) (adjusted to 50 mM using the following stock solution: Rockland Cat. #MB028-1000) and CaCl2) (adjusted to 15 mM using the following stock solution: Sigma-Aldrich Cat. #21115-100ML) were added and the resulting mixture was poured into 60 mm Petri dishes (Corning Cat. #430589). 1 μM or 2 μM AttoPoly T 4mer (IDT, custom order) and 4 μg/mL Cefoxitin (Alfa Aesar Cat. #AAJ6689103) were also included where indicated. The agar mixtures were allowed to solidify, then the Petri dishes were sealed with parafilm (Bemis Cat. #999) and stored at 4° C., protected from light.
S. aureus (ATCC 29213) cultures were grown in Tryptic Soy Broth (BD Cat. #211825) overnight at 37° C. with shaking at 300-400 rpm. Dilutions to […] were made and these were streaked on agar Petri dishes with 1 μL calibrated inoculation loops (Fisher Scientific, Fisherbrand Cat. #22363601). […]
as §2

E. coli (ATCC 25922) [1] = test: Specificity control on probe-embedded agar plates: E. coli; assay type: cell-based, Escherichia coli; details: 8 hours after plating
Method: as §3
(§4) Two fluorescence measurement formats were used to detect the growth of target bacterial species on agar growth media. Agar media poured in 60 mm dishes or distributed to the wells of 96-well clear-bottomed plates were placed on an LED transilluminator (IORodeo) that emits blue light. A light filter was placed over the plates or dishes to block the LED-emitted light, but the filter still allows green light to pass, which is captured with an iPhone camera. […] The fluorescence of the 96-well plates was also measured with a Bio-Tek fluorescence plate-reader using fluorescence filters tailored for green fluorescence, providing quantitative data.

[2] = system: S. lugdunensis (ATCC 700328); test: Specificity control on probe-embedded agar plates: S. lugdunensis; assay type: cell-based, Staphylococcus lugdunensis; details: 8 hours after plating
Method: as §3, §4

S. pyogenes (ATCC 12344) [3] = test: S. pyogenes detection on probe-embedded agar plates; assay type: cell-based, Streptococcus pyogenes; details: agar plates with 0.5 μM probe, streaked with 10,000 cells, 37° C.
Method: Tryptic Soy Agar (BD Cat. #236950) was autoclaved according to the manufacturer's instructions and cooled down to 50-60 degrees C. Then, pre-sterilized components including Tris-HCl (pH 8.0) (adjusted to 50 mM with the following stock solution: Fisher Scientific Cat. #BP1758-100) and MgCl2 (adjusted to 20 mM with the following stock solution: Invitrogen Cat. #AM9530G) were added and the resulting mixture was poured into 60 mm Petri dishes (Corning Cat. #430589). 0.5 μM Self-Hyb ATTO and 2 μg/mL Colistin (Alfa Aesar Cat. #AAJ67415XF) were also included where indicated. The agar mixtures were allowed to solidify. Then the Petri dishes were sealed with parafilm (Bemis Cat. #999) and stored at 4° C., protected from light.
S. pyogenes (ATCC® 12344) cultures were grown in Tryptic Soy Broth (BD Cat. #211825) overnight at 37° C. with shaking at 300-400 rpm. Dilutions to […] were made and streaked on agar Petri dishes with 1 μL calibrated inoculation loops (Fisher Scientific, Fisherbrand Cat. #22363601). […]
as §2

E. coli (ATCC 25922) [4] = test: E. coli detection on fluorogenic agar in 96-well plates; assay type: cell-based, Escherichia coli; details: 0.5 μM probe in TSA-based media, 96-well plate, 37° C.; vs S. aureus and S. pyogenes
Method: Tryptic Soy Agar (BD Cat. #236950) was autoclaved according to the manufacturer's instructions and cooled down to 50-60° C. Then, pre-sterilized components, including Tris-HCl (pH 8.0) (adjusted to 50 mM with the following stock solution: Fisher Scientific Cat. #BP1758-100), MgCl2 (adjusted to 20 mM with the following stock solution: Invitrogen Cat. #AM9530G), and Triton® X-100 (adjusted to 1% with the following stock solution: Fisher Scientific Cat. #50-751-7090). 0.5 μM Self-Hyb ATTO was also included where indicated. […]
as §1, with “E. coli” for “S. aureus”, “25922)” for “29213)”, “also measured” for “also”, “concurrently” for “concurrently measured”
as §2

S. pyogenes (ATCC 12344) [5] = test: S. pyogenes detection on selective fluorogenic agar in 96-well plates; assay type: cell-based, Streptococcus pyogenes; details: 0.5 μM probe, 96-well plate, in the presence of colistin (2 μg/ml), 37° C.
Method: Tryptic Soy Agar (BD Cat. #236950) was autoclaved according to the manufacturer's instructions and cooled down to 50-60° C. Then, pre-sterilized components, including Tris-HCl (pH 8.0) (adjusted to 50 mM with the following stock solution: Fisher Scientific Cat. #BP1758-100) and MgCl2 (adjusted to 20 mM with the following stock solution: Invitrogen Cat. #AM9530G) were added. 0.5 μM Self-Hyb ATTO and 2 μg/mL Colistin (Alfa Aesar Cat. #AAJ67415XF) were also included where indicated. 90 μL of the agar mixtures were pipetted into the wells of clear-bottom 96-well plates (Thermo Scientific, nunc Cat. #265301) and allowed to solidify. […]
as §1, with “pyogenes (ATCC® 12344™)” for “aureus (ATCC 29213)”, “with” for “using”, “also measured” for “also”, “concurrently” for “concurrently measured”
as §2

nuclease of S. pyogenes = test: Probe sensitivity to S. pyogenes nuclease; assay type: biochemical
Endonuclease I = target: T1, Endonuclease I (Escherichia coli, UniProt P25736); test: Probe sensitivity to Endonuclease I; assay type: biochemical
T1 sequence (P25736 23-235): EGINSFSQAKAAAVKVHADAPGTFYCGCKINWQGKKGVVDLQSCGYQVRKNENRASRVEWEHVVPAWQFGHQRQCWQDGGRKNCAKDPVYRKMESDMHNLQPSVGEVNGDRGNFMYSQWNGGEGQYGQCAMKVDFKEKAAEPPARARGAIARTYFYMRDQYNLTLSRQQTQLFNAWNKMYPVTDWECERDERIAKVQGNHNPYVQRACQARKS

most nucleases = test: Probe resistance to nucleases in general; assay type: biochemical
[6] = target: micrococcal nuclease of S. aureus (Staphylococcus aureus, UniProt P00644); test: Probe sensitivity to micrococcal nuclease; assay type: biochemical

Substance: 5′-ATTO488-TTTT-ZEN-RQSp-3′ [AttoPoly T 4mer]
- time at which MRSA can be distinguished from MSSA (MRSA (ATCC BAA1707)): 8 to 10 h
- time to detection of S. aureus colonies after plating (S. aureus (ATCC 29213)): ≤ 8 h
- fluorescence produced by E. coli on probe-embedded agar (E. coli (ATCC 25922) [1]): did not produce fluorescence
- fluorescence produced by S. lugdunensis on probe-embedded agar [2]: did not produce fluorescence

Substance: 5′-ATTO488-fC-fU-fA-fC-fG-fU-fA-fG-ZEN-RQSp-3′ (CUACGUAG; 2'-fluoro; ATTO488, ZEN, RQSp quencher; (1)..(8) Each base pair in this sequence is a 2′-fluoro modified nucleotide. Please see Table 1 of the Specification.) [Self-Hyb ATTO]
- time to detection of S. pyogenes (S. pyogenes (ATCC 12344) [3]): 19 h
- time to specific detection of E. coli (E. coli (ATCC 25922) [4]): 8 h
- time to detection of low concentrations of S. pyogenes (S. pyogenes (ATCC 12344) [5]): ≤ 10 h
- sensitivity to a nuclease of S. pyogenes (nuclease of S. pyogenes): sensitive
- sensitivity to Endonuclease I (Endonuclease I): sensitive

Substance: CTACGTAG (DNA, backbone not given here; further chemistry not fully specified) [DNA-SH]
- sensitivity to Endonuclease I (Endonuclease I): sensitive

Substance: fUfUfUfAfUfGfCfAfUfAfAfA (UUUAUGCAUAAA; all 2'-fluoro, backbone not given here; thiol or fluorophore label) [SH-Fl 5UUU]
- sensitivity to a nuclease of S. pyogenes (nuclease of S. pyogenes): sensitive
- sensitivity to Endonuclease I (Endonuclease I): sensitive

Substance: mCmUmAmCmGmUmAmG (CUACGUAG; all 2'-O-methyl, backbone not given here; thiol modification) [2′-OMe SH]
- resistance to nucleases (most nucleases): resistant to most nucleases

Substance: mUTTmUmUmUmUmUmUmUmU (UTTUUUUUUUU; sugars from the 5' end m1 d2 m8, backbone not given here) [P2&3 TT Probe]
- sensitivity to micrococcal nuclease of S. aureus [6]: sensitive
